Earlier results on 2 substances are cited in PMC4131438 (ACS chemical biology, 2014).

In series [1] the test system is pro-apoptotic BAX.
The conditions of series [2]: BIM BH3 aa 146-166 template, staple at R154/E158 i, i+4.

Turning to “BIM BH3 peptide (aa 145-164): unmodified BIM BH3 peptide composed of amino acids 145-164”, in series [1] (aa 145-164 constructs), the “binding to full-length BAX” value is reported as “negligible binding”.
Turning to “BIM BH3 peptide (aa 146-166): unmodified BIM BH3 peptide, amino acids 146-166”, the “α-helical content in solution” value in series [2] is recorded as 20%. In series [1] (fluorescence polarization binding assays, aa 146-166 constructs), the “binding to pro-apoptotic BAX” value was “no detectable BAX interaction”.
